In patent US5061723A, “Non-teratogenic vitamin A preparation for women of child-bearing age” (Iowa State University Research Foundation, Inc., priority 1989, dated 1991):

Columns and labels:
[1] = cited from earlier work
pregnant rats (fetuses) = experiment: Teratogenicity test in pregnant rats (single oral dose on day 8.5 of gestation; fetuses examined day 19-19.5); format: in vivo, rat
Method: All-trans retinoic acid glucuronide was tested for teratogenicity in pregnant rats.
The retinoic acid glucuronide dissolved in vegetable oil. Equivalent amount of all-trans retinoic acid was also dissolved in the vegetable oil. Groups of pregnant rats were dosed orally with either retinoid glucuronide or retinoic acid on day 8.5 of gestation. […] The rats were killed on day 19.5 of a 21 day gestational period, and the fetuses were examined for viability, growth, and developmental abnormalities.
Rats that became pregnant during the same night were selected for the study. The rats were divided into 3 groups. Rats in Group 1 received orally 55 mg of the all-trans retinoic acid glucuronide (equivalent to 35 mg of retinoic acid) or a very large dose of 108 mg of the glucuronide in peanut oil. Rats in Group 2 received orally 35 mg of all-trans retinoic acid in peanut oil. Rats in Group 3 received no retinoid and served as control. The rats were then allowed to grow normally and on day 19, they were killed and fetuses were examined.

β-glucuronidase = experiment: Hydrolysis by β-glucuronidase (from E. coli); format: biochemical; conditions: phosphate buffer pH 6.8, 0.5-2 hrs
Method: An analytically pure sample of retinoyl β-glucuronide was obtained by HPLC of the above preparation on a Whatman ODS-3 column (M9, 50 cm) using methanol/water (7:3) containing 10 mM ammonium acetate at a flow rate of 3 ml/min. Retinoyl β-glucuronide (tR =49.7 min) separated from traces of isomers or anomers (tR =46.4 min). The eluate carrying retinoyl β-glucuronide was diluted with water and made just acidic with 0.1N HCl. The product was extracted with ethyl acetate. The extract was washed with water, dried over anhydrous sodium sulfate, and then evaporated to dryness. The residue was dissolved in a small volume of diethyl ether and all-trans retinoyl β-glucuronide was precipitated with hexane. The solid was separated and dried. All-trans retinoyl β-glucuronide:m.p. 142°-143° C. (darkens at 125° C.); UVmax 360 nm (E1cm =1065) in methanol and 365 nm in water. The ^1 H-NMR, IR and Mass spectra and C, H analysis results were consistent with the structure.

Solubility in water = format: physicochemical; conditions: all-trans retinoyl β-glucuronide
HL-60 cells = conditions: cited from earlier work; for activity in the HL-60 systems assay: compared with retinoic acid and retinol
human fetus = conditions: oral, 0.5 to 2 mg/kg body weight per 24 hours; cited from earlier work

## CC1=C(/C=C/C(C)=C/C=C/C(C)=C/C(=O)O)C(C)(C)CCC1 [Retinoic acid, all-trans retinoic acid, reference compound]
[1]
  water solubility: not water-soluble
Pregnant rats (fetuses); same large doses of retinoic acid, oral
  outcome of pregnancy / embryos: did not carry the pregnancy to term--all the embryos died and were being resorbed

## CC1=C(/C=C/C(C)=C/C=C/C(C)=C/C(=O)O[C@@H]2O[C@H](C(=O)O)[C@@H](O)[C@H](O)[C@H]2O)C(C)(C)CCC1 [Retinoyl β-glucuronide, All-trans retinoyl β-glucuronide]
β-glucuronidase
  product of incubation with β-glucuronidase: generated retinoic acid
Pregnant rats (fetuses); rat, in vivo, po
  condition of pups: All the pups were normal and live
  teratogenicity, observation in words: did not show any sign of teratogenicity
Solubility in water
  solubility in water: soluble in water
HL-60 cells
  activity in the HL-60 systems assay: activity similar to retinoic acid and retinol
HL-60 cells; in vitro, vs all-trans retinoic acid, Gallup et al. and Zile et al.
  cytotoxicity to HL-60 cells, less than all-trans retinoic acid: 50%

## CC1=C(/C=C/C(C)=C/C=C/C(C)=C\C(=O)O)C(C)(C)CCC1 [isotretinoin, 13-cis form of retinoic acid]
Human fetus
  teratogenicity at typical clinical doses: highly teratogenic

## CC1=C(/C=C/C(C)=C/C=C/C(C)=C/COC2O[C@H](C(=O)O)[C@@H](O)[C@H](O)[C@H]2O)C(C)(C)CCC1 (some centres unmarked) [retinol glucuronide, reference compound]
HL-60 cells
  activity in the HL-60 systems assay: activity similar to retinoic acid and retinol

## CC1=C(/C=C/C(C)=C/C=C/C(C)=C/CO)C(C)(C)CCC1 [retinol]
[1]
  water solubility: water-insoluble
